Target: human APJ receptor (Homo sapiens (Human), UniProt P35414)
Experiment: Intracellular cAMP accumulation assay (APJ hcAMP, HTRF)
Type: cell-based
Settings: HEK293 cells stably expressing human APJ receptor; inhibition of forskolin-mediated cAMP production; read-out: Human APJ cAMP EC50 Potency range
Method in brief: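 HEK293 cells stably expressing human APJ, 5,000 per well, incubated 30 min at rt with compound, […] and 2 μM forskolin. cAMP measured by HTRF against a cAMP standard curve as inhibition of forskolin-driven production. EC50 from variable-slope sigmoidal fit.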

Sequence of human APJ receptor (P35414 whole entry): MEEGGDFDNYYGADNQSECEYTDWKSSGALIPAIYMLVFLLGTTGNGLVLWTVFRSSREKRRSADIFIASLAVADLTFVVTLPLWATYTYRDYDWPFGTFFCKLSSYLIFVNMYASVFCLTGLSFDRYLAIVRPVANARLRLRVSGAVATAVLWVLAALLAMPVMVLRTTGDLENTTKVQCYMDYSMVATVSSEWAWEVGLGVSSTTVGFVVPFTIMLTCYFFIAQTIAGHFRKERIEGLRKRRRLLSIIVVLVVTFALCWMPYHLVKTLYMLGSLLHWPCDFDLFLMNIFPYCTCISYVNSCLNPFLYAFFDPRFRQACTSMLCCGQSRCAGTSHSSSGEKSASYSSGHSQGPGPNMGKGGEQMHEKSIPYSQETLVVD

| Structure (SMILES) | EC50 |
| --- | --- |
| CC[C@@H](c1cccc(C#N)c1)n1c(COC(C)C)nc(=O)c(S(=O)(=O)c2ccc(-c3ccnc(F)c3C)cc2)c1O [Example 381, 3-[(1S)-1-{5-[4-(2-fluoro-3-methylpyridin-4-yl)benzenesulfonyl]-6-hydroxy-4-oxo-2-[(propan-2-yloxy)methyl]-1,4-dihydropyrimidin-1-yl}propyl]benzonitrile] | 0.01 to 10 nM |
| CC[C@@H](c1cccc(C#N)c1)n1c(COC(C)C)nc(=O)c(S(=O)(=O)c2ccc(-c3ccc(F)nc3C)cc2)c1O [Example 382, 3-[(1S)-1-{5-[4-(6-fluoro-2-methylpyridin-3-yl)benzenesulfonyl]-6-hydroxy-4-oxo-2-[(propan-2-yloxy)methyl]-1,4-dihydropyrimidin-1-yl}propyl]benzonitrile] | 0.01 to 10 nM |
| CC[C@@H](c1cccc(C#N)c1)n1c(COC(C)C)nc(=O)c(S(=O)(=O)c2ccc(-c3ccncc3C)cc2)c1O [Example 383, 3-[(1S)-1-{6-hydroxy-5-[4-(3-methylpyridin-4-yl)benzenesulfonyl]-4-oxo-2-[(propan-2-yloxy)methyl]-1,4-dihydropyrimidin-1-yl}propyl]benzonitrile] | 0.01 to 10 nM |
| CC[C@@H](c1cccc(C#N)c1)n1c(COC(C)C)nc(=O)c(S(=O)(=O)c2ccc(-c3cccnc3C)cc2)c1O [Example 384, 3-[(1S)-1-{6-hydroxy-5-[4-(2-methylpyridin-3-yl)benzenesulfonyl]-4-oxo-2-[(propan-2-yloxy)methyl]-1,4-dihydropyrimidin-1-yl}propyl]benzonitrile] | 0.01 to 10 nM |
| CCOCc1nc(=O)c(S(=O)(=O)c2ccc(-c3ccc(F)nc3C)cc2)c(O)n1[C@@H](COC)c1cc(F)cc(F)c1 [Example 385, 1-[(1R)-1-(3,5-difluorophenyl)-2-methoxyethyl]-2-(ethoxymethyl)-5-[4-(6-fluoro-2-methylpyridin-3-yl)benzenesulfonyl]-6-hydroxy-1,4-dihydropyrimidin-4-one] | 0.01 to 10 nM |
| CCOCc1nc(=O)c(S(=O)(=O)c2ccc(-c3cccnc3C)cc2)c(O)n1[C@@H](COC)c1cc(F)cc(F)c1 [Example 386, 1-[(1R)-1-(3,5-difluorophenyl)-2-methoxyethyl]-2-(ethoxymethyl)-6-hydroxy-5-[4-(2-methylpyridin-3-yl)benzenesulfonyl]-1,4-dihydropyrimidin-4-one] | 0.01 to 10 nM |
| CCOCc1nc(=O)c(S(=O)(=O)c2ccc(-c3ccncc3C)cc2)c(O)n1[C@@H](COC)c1cc(F)cc(F)c1 [Example 387, 1-[(1R)-1-(3,5-difluorophenyl)-2-methoxyethyl]-2-(ethoxymethyl)-6-hydroxy-5-[4-(3-methylpyridin-4-yl)benzenesulfonyl]-1,4-dihydropyrimidin-4-one] | 0.01 to 10 nM |
| CCOCc1nc(=O)c(S(=O)(=O)c2ccc(-c3ccnc(F)c3C)cc2)c(O)n1[C@@H](COC)c1cc(F)cc(F)c1 [Example 388, 1-[(1R)-1-(3,5-difluorophenyl)-2-methoxyethyl]-2-(ethoxymethyl)-5-[4-(2-fluoro-3-methylpyridin-4-yl)benzenesulfonyl]-6-hydroxy-1,4-dihydropyrimidin-4-one] | 0.01 to 10 nM |
| COC[C@@H](c1cccc(C#N)c1)n1c(COC(C)C)nc(=O)c(S(=O)(=O)c2ccc(-c3ccc(F)nc3C)cc2)c1O [Example 389, 3-[(1R)-1-{5-[4-(6-fluoro-2-methylpyridin-3-yl)benzenesulfonyl]-6-hydroxy-4-oxo-2-[(propan-2-yloxy)methyl]-1,4-dihydropyrimidin-1-yl}-2-methoxyethyl]benzonitrile] | 0.01 to 10 nM |
| COC[C@@H](c1cccc(C#N)c1)n1c(COC(C)C)nc(=O)c(S(=O)(=O)c2ccc(-c3cccnc3C)cc2)c1O [Example 390, 3-[(1R)-1-{6-hydroxy-5-[4-(2-methylpyridin-3-yl)benzenesulfonyl]-4-oxo-2-[(propan-2-yloxy)methyl]-1,4-dihydropyrimidin-1-yl}-2-methoxyethyl]benzonitrile] | 0.01 to 10 nM |
| COC[C@@H](c1cc(F)cc(F)c1)n1c(COC(C)C)nc(=O)c(S(=O)(=O)c2ccc(-c3cncc(C#N)c3)cc2)c1O [Example 391, 5-[4-({1-[(1R)-1-(3,5-difluorophenyl)-2-methoxyethyl]-6-hydroxy-4-oxo-2-[(propan-2-yloxy)methyl]-1,4-dihydropyrimidin-5-yl}sulfonyl)phenyl] pyridine-3-carbonitrile] | 0.01 to 10 nM |
| COC[C@@H](c1cc(F)cc(F)c1)n1c(COC(C)C)nc(=O)c(S(=O)(=O)c2ccc(-c3ccccc3C(N)=O)cc2)c1O [Example 392, 4′-({1-[(1R)-1-(3,5-difluorophenyl)-2-methoxyethyl]-6-hydroxy-4-oxo-2-[(propan-2-yloxy)methyl]-1,4-dihydropyrimidin-5-yl}sulfonyl)-[1,1′-biphenyl]-2-carboxamide] | 0.01 to 10 nM |
| COC[C@@H](c1cccc(C#N)c1)n1c(COC(C)C)nc(=O)c(S(=O)(=O)c2ccc(-c3cn(C)nc3C)cc2)c1O [Example 393, 3-[(1R)-1-{5-[4-(1,3-dimethyl-1H-pyrazol-4-yl)benzenesulfonyl]-6-hydroxy-4-oxo-2-[(propan-2-yloxy)methyl]-1,4-dihydropyrimidin-1-yl}-2-methoxyethyl]benzonitrile] | 0.01 to 10 nM |
| COC[C@@H](c1cccc(C#N)c1)n1c(COC(C)C)nc(=O)c(S(=O)(=O)c2ccc(-c3c[nH]nc3C)cc2)c1O [Example 394, 3-[(1R)-1-{6-hydroxy-5-[4-(3-methyl-1H-pyrazol-4-yl)benzenesulfonyl]-4-oxo-2-[(propan-2-yloxy)methyl]-1,4-dihydropyrimidin-1-yl}-2-methoxyethyl]benzonitrile] | 0.01 to 10 nM |
| COC[C@@H](c1cccc(C#N)c1)n1c(COC(C)C)nc(=O)c(S(=O)(=O)c2ccc(-c3ccnc(F)c3C)cc2)c1O [Example 395, 3-[(1R)-1-{5-[4-(2-fluoro-3-methylpyridin-4-yl)benzenesulfonyl]-6-hydroxy-4-oxo-2-[(propan-2-yloxy)methyl]-1,4-dihydropyrimidin-1-yl}-2-methoxyethyl]benzonitrile] | 0.01 to 10 nM |
| COC[C@@H](c1cc(F)cc(F)c1)n1c(COC(C)C)nc(=O)c(S(=O)(=O)c2ccc(-c3cn(C)nc3C)cc2)c1O [Example 396, 1-[(1R)-1-(3,5-difluorophenyl)-2-methoxyethyl]-5-[4-(1,3-dimethyl-1H-pyrazol-4-yl)benzenesulfonyl]-6-hydroxy-2-[(propan-2-yloxy)methyl]-1,4-dihydropyrimidin-4-one] | 0.01 to 10 nM |
| COC[C@@H](c1cc(F)cc(F)c1)n1c(COC(C)C)nc(=O)c(S(=O)(=O)c2ccc(-c3cnn(C)c3C)cc2)c1O [Example 397, 1-[(1R)-1-(3,5-difluorophenyl)-2-methoxyethyl]-5-[4-(1,5-dimethyl-1H-pyrazol-4-yl)benzenesulfonyl]-6-hydroxy-2-[(propan-2-yloxy)methyl]-1,4-dihydropyrimidin-4-one] | 0.01 to 10 nM |
| COC[C@@H](c1cc(F)cc(F)c1)n1c(COC(C)C)nc(=O)c(S(=O)(=O)c2ccc(-c3ccncc3C#N)cc2)c1O [Example 398, 4-[4-({1-[(1R)-1-(3,5-difluorophenyl)-2-methoxyethyl]-6-hydroxy-4-oxo-2-[(propan-2-yIoxy)methyl]-1,4-dihydropyrimidin-5-yl}sulfonyl)phenyl] pyridine-3-carbonitrile] | 0.01 to 10 nM |
| COC[C@@H](c1cccc(C#N)c1)n1c(COC(C)C)nc(=O)c(S(=O)(=O)c2ccc(-c3ccccc3C(N)=O)cc2)c1O [Example 399, 4′-({1-[(1R)-1-(3-cyanophenyl)-2-methoxyethyl]-6-hydroxy-4-oxo-2-[(propan-2-yloxy)methyl]-1,4-dihydropyrimidin-5-yl}sulfonyl)-[1,1′-biphenyl]-2-carboxamide] | 0.01 to 10 nM |
| CC[C@@H](c1cccc(C#N)c1)n1c(COC(C)C)nc(=O)c(S(=O)(=O)c2ccc(-c3ccccc3C(N)=O)cc2)c1O [Example 400, 4′-({1-[(1S)-1-(3-cyanophenyl)propyl]-6-hydroxy-4-oxo-2-[(propan-2-yloxy)methyl]-1,4-dihydropyrimidin-5-yl}sulfonyl)-[1,1′-biphenyl]-2-carboxamide] | 0.01 to 10 nM |
| CCOCc1nc(=O)c(S(=O)(=O)c2ccc(-c3ccccc3C(N)=O)c(F)c2)c(O)n1C(COC)c1cccc(F)c1 (stereo not shown) [Example 401, 4′-{[2-(ethoxymethyl)-1-[1-(3-fluorophenyl)-2-methoxyethyl]-6-hydroxy-4-oxo-1,4-dihydropyrimidin-5-yl]sulfonyl}-2′-fluoro-[1,1′-biphenyl]-2-carboxamide] | 0.01 to 10 nM |
| COC[C@@H](c1ccccc1)n1c(COC(C)C)nc(=O)c(S(=O)(=O)c2ccc(-c3ccccc3C(N)=O)c(F)c2)c1O [Example 402, 2′-fluoro-4′-({6-hydroxy-1-[(1R)-2-methoxy-1-phenylethyl]-4-oxo-2-[(propan-2-yloxy)methyl]-1,4-dihydropyrimidin-5-yl}sulfonyl)-[1,1′-biphenyl]-2-carboxamide] | 0.01 to 10 nM |
| CC[C@@H](c1cccc(C#N)c1)n1c(COC(C)C)nc(=O)c(S(=O)(=O)c2ccc(-c3ccncc3C#N)cc2)c1O [Example 403, 4-[4-({1-[(1S)-1-(3-cyanophenyl)propyl]-6-hydroxy-4-oxo-2-[(propan-2-yloxy)methyl]-1,4-dihydropyrimidin-5-yl}sulfonyl)phenyl]pyridine-3-carbonitrile] | 0.01 to 10 nM |
| COC[C@@H](c1cccc(C#N)c1)n1c(COC(C)C)nc(=O)c(S(=O)(=O)c2ccc(-c3ccncc3C#N)cc2)c1O [Example 404, 4-[4-({1-[(1R)-1-(3-cyanophenyl)-2-methoxyethyl]-6-hydroxy-4-oxo-2-[(propan-2-yloxy)methyl]-1,4-dihydropyrimidin-5-yl}sulfonyl)phenyl] pyridine-3-carbonitrile] | 0.01 to 10 nM |
| COC[C@@H](c1ccccc1)n1c(COC(C)C)nc(=O)c(S(=O)(=O)c2ccc(-c3ccncc3C#N)c(F)c2)c1O [Example 405, 4-[2-fluoro-4-({6-hydroxy-1-[(1R)-2-methoxy-1-phenylethyl]-4-oxo-2-[(propan-2-yloxy)methyl]-1,4-dihydropyrimidin-5-yl}sulfonyl)phenyl]pyridine-3-carbonitrile] | 0.01 to 10 nM |

Source: US10508104B2, “6-hydroxy-5-(phenyl/heteroarylsulfonyl)pyrimidin-4(1H)-one as APJ agonists” (Bristol-Myers Squibb Company, priority 2016, dated 2019)
